Results on 4 compounds are retold here after PMC3806051 (Journal of the American Chemical Society, 2013).

Values joined by “and” are separate entries in the source; they are usually repeats but may differ in a detail not shown here. Equal entries are not always repeated. “Also recorded” adds a separate entry of the source. Where two headings read alike, the source gives them in different places.

Series [1] can be described thus: Isomerization in binding assay medium. Type of series: physicochemical. Conditions: for proportion of isomer in the mixture: 100 h time-point, regardless which isomer was used at the beginning.
Series [2] can be described thus: Stability / isomerization in organic solvents. As to conditions: CH2Cl2, THF, EtOAc, DMSO.
Series [3] can be described thus: Plasma concentration in tumor bearing SCID mice. As to conditions: for Plasma Concentration of isomer: single oral 100 mg/kg, 24 h.
For series [4], the system named is SJSA-1 osteosarcoma tumor xenograft. Type of series: in vivo. As to conditions: for tumor growth inhibition as compared to vehicle control: end of treatment (day 26); for weight loss or other signs of toxicity: 5a 200 mg/kg, 5b 100 and 200 mg/kg daily oral 14 days.
The subject of series [5] is SJSA-1 osteosarcoma cell line. In words: cells. As to conditions: Homo sapiens, read-out: IC50 cell growth inhibition.
Series [6] in a line: Tumor tissue concentration in tumor bearing SCID mice. Conditions: for Tumor Concentration of isomer: single oral 100 mg/kg, 24 h.
Series [7] is described as follows: Isomerization in vivo in plasma and tumor tissue. Conditions: plasma and tumor tissue of SCID mice.
Series [8] in a line: Interconversion of isomers in MeCN-H2O. Type of series: physicochemical.
Series [9] deals with p53 activation in SJSA-1 tumor tissue. In words: Pharmacodynamic study, Western blotting of tumor tissue. As to conditions: single oral dose 200 mg/kg; for p53 activation in tumor tissue (accumulation of p53, MDM2 and p21): Western blot. It is filed as in vivo, mouse. For orientation: In western blotting, separated proteins are transferred to a membrane and probed.
A short description of series [10]: Isomerization in cell culture medium. Conditions: 2 days, starting from 5a or 5b. It is filed as physicochemical.
The test system of series [11] is animal models of human cancer. Conditions: ref 6b; cited from earlier work.
For series [12], the system named is MDM2. Conditions: ref 6b; cited from earlier work.

As to `CN(C)C(=O)[C@@H]1N[C@H](CC(C)(C)C)[C@]2(C(=O)Nc3cc(Cl)ccc32)[C@H]1c1cccc(Cl)c1` [1a, (2′R,3S,4′R,5′R)-6-chloro-4′-(3-chlorophenyl)-N,N-dimethyl-2′-neopentyl-2-oxospiro[indoline-3,3′-pyrrolidine]-5′-carboxamide], in [1] (binding assay medium, after 12 days), the “remaining of starting isomer” value turned out to be 17.6%. Besides, the “converted into 1b” value in series [1] (binding assay medium, after 12 days, started with 1a) stood at 53%. In series [2], the “stability in aprotic solvents” value is “relatively stable”.

In general, IC50 refers to the concentration needed to halve the response being measured. In the case of `CC(C)(C)C[C@H]1N[C@@H](C(=O)NCC[C@H](O)CO)[C@H](c2cccc(Cl)c2F)[C@@]12C(=O)Nc1cc(Cl)ccc12` [5a, (2′R,3S,4′S,5′R)-6-chloro-4′-(3-chloro-2-fluorophenyl)-N-((S)-3,4-dihydroxybutyl)-2′-neopentyl-2-oxospiro[indoline-3,3′-pyrrolidine]-5′-carboxamide], the “Plasma Concentration of isomer” value in [3] (dosed with 5a) is on record as “BLQ”; in series [3] (dosed with 5b) it was “BLQ ^b”. The “proportion of isomer in the mixture” value in [1] (binding assay medium) is given as approximately 40%. Moreover, in [4] (200 mg/kg daily oral gavage 14 days), the “tumor growth inhibition as compared to vehicle control” value amounted to 41%. In series [4], the “weight loss or other signs of toxicity” value is “no significant weight loss”. The IC50 worked out at 30300 ± 6230 nM in series [5] (SJSA-1, 24 h); 950 ± 160 nM in series [5] (SJSA-1, 48 h); 180 ± 20 nM in series [5] (SJSA-1, 72 h); 150 ± 30 nM in [5] (SJSA-1, 96 h). The “Tumor Concentration of isomer” value in series [6] (dosed with 5a) and in series [6] (dosed with 5b) was “BLQ” in each case. Also, in series [7], the isomerization in vivo result was “isomerizes very fast”. Also, the “isomerization in CH3CN-H2O” value in series [8] (over a period of up to four days) was “gradually converted into a mixture of four isomers”. In addition, in series [9], the “p53 activation in tumor tissue (accumulation of p53, MDM2 and p21)” value is recorded as “effectively activated p53”.

As for `CC(C)(C)C[C@@H]1N[C@@H](C(=O)NCC[C@H](O)CO)[C@H](c2cccc(Cl)c2F)[C@]12C(=O)Nc1cc(Cl)ccc12` [5b, (2′S,3R,4′S,5′R)-6-chloro-4′-(3-chloro-2-fluorophenyl)-N-((S)-3,4-dihydroxybutyl)-2′-neopentyl-2-oxospiro[indoline-3,3′-pyrrolidine]-5′-carboxamide], the “proportion of 5b of all 4 isomers” value in series [10] was “approximately 50%”. In addition, the “Plasma Concentration of isomer” value in [3] (dosed with 5a) is “BLQ”. In addition, the “plasma concentration of 5b in mice dosed with 5b versus mice dosed with 5a” value in series [3] (mouse, in vivo) was 7 fold and 12 fold. Moreover, the “proportion of isomer in the mixture” value in series [1] (binding assay medium) is “approximately 50%”. The “isomerization kinetics in binding assay medium” value in series [1] (room temperature) is “slow isomerization kinetic and was the most stable”. Moreover, in series [4] (100 mg/kg daily oral gavage 14 days), the “tumor growth inhibition as compared to vehicle control” value is reported as 67%. Further, the “weight loss or other signs of toxicity” value in [4] was “no significant weight loss”. The IC50 came out at 18100 ± 2400 nM in series [5] (SJSA-1, 24 h); 630 ± 40 nM in series [5] (SJSA-1, 48 h); 180 ± 10 nM in series [5] (SJSA-1, 72 h). For the same compound, the “Tumor Concentration of isomer” value in series [6] (dosed with 5a) and in [6] (dosed with 5b) was “BLQ” throughout. For the same compound, the “tumor tissue concentration of 5b in mice dosed with 5b versus mice dosed with 5a” value in series [6] (mouse, in vivo) was 11 fold and 16 fold. Also, the isomerization in vivo result in series [7] is given as “isomerizes slowly”. Besides, the “converted into a mixture of three other isomers” value in series [8] (CH3CN-H2O, after 12 days) is listed as 4%. The “apoptosis induction in tumor tissue (PARP cleavage, caspase-3 activation)” value in series [9] (24 h) is given as “stronger apoptosis induction than 5a”. Moreover, the “p53 activation in tumor tissue (accumulation of p53, MDM2 and p21)” value in [9] (200 mg/kg) is reported as “effectively activated p53; also recorded: clearly more potent than 5a”.

Turning to `CC(C)(C)C[C@H]1N[C@@H](C(=O)NCC[C@H](O)CO)[C@H](c2cccc(Cl)c2)[C@@]12C(=O)Nc1cc(Cl)c(F)cc12.Cl` [MI-219], in series [11], the “tumor growth in animal models of human cancer” value is “strongly inhibits tumor growth”. In [12], the “binding affinity to MDM2” value was “low nanomolar affinity”.
